According to ChEMBL document CHEMBL5113436, “WCK 4034: A promising oxazolidinone for treating gram positive infections” (Bioorg Med Chem Lett, 2022):
≈ marks a conversion by molar mass, not a printed value.

Legend:
[1] = test system: Staphylococcus aureus; assay: Antibacterial activity against methicillin-sensitive Staphylococcus aureus Sta-001 incubated for 18 hrs by CLSI protocol based two-fold serial agar dilution method; type: functional
[2] = test system: Staphylococcus aureus; assay: Antibacterial activity against methicillin-resistant Staphylococcus aureus Sta-032 incubated for 18 hrs by CLSI protocol based two-fold serial agar dilution method; type: functional
[3] = test system: Streptococcus pneumoniae; assay: Antibacterial activity against Streptococcus pneumoniae ATCC 49619 incubated for 18 hrs by CLSI protocol based two-fold serial agar dilution method; type: functional
[4] = test system: Haemophilus influenzae; assay: Antibacterial activity against Haemophilus influenzae […] ATCC 35054 incubated for 18 hrs by CLSI protocol based two-fold serial agar dilution method; type: functional
[5] = test system: Staphylococcus aureus; assay: Antibacterial activity against Staphylococcus aureus Sta-5027 infected in Swiss mouse model of septicemia administered by oral route 1 h and 5 h post-infection; type: functional; settings: Sta-5027, 168 h, time 7 day
[6] = test system: Staphylococcus aureus; assay: Antibacterial activity against Linezolid-resistant Staphylococcus aureus Sta-5059 incubated for 18 hrs by CLSI protocol based two-fold serial agar dilution method; type: functional
[7] = test system: Staphylococcus aureus; assay: Antibacterial activity against Linezolid-resistant Staphylococcus aureus Sta-5060 incubated for 18 hrs by CLSI protocol based two-fold serial agar dilution method; type: functional
[8] = Cmax in Wistar rat at 15 mg/kg, iv; type: ADME, organism-based; parameters: dose 15 mg/kg, route iv; settings: in vivo
[9] = Cmax in Wistar rat at 30 mg/kg, iv; type: ADME, organism-based; parameters: dose 30 mg/kg, route iv; settings: in vivo
[10] = Cmax in Beagle dog at 15 mg/kg, iv; type: ADME, organism-based, Canis lupus familiaris; parameters: dose 15 mg/kg, route iv; settings: in vivo
[11] = AUC in Wistar rat at 15 mg/kg, iv; type: ADME, organism-based; parameters: dose 15 mg/kg, route iv; settings: in vivo
[12] = AUC in Beagle dog at 15 mg/kg, iv; type: ADME, organism-based, Canis lupus familiaris; parameters: dose 15 mg/kg, route iv; settings: in vivo
[13] = Terminal half life in Wistar rat at 30 mg/kg, iv; type: ADME, organism-based; settings: in vivo
[14] = Terminal half life in Beagle dog at 15 mg/kg, iv; type: ADME, organism-based, Canis lupus familiaris; settings: in vivo
[15] = Volume of distribution in Wistar rat at 15 mg/kg, iv; type: ADME, organism-based; settings: in vivo
[16] = Volume of distribution in Wistar rat at 30 mg/kg, iv; type: ADME, organism-based; settings: in vivo
[17] = Clearance in Wistar rat at 15 mg/kg, iv; type: ADME, organism-based; settings: in vivo
[18] = Clearance in Wistar rat at 30 mg/kg, iv; type: ADME, organism-based; settings: in vivo
[19] = Clearance in Beagle dog at 15 mg/kg, iv; type: ADME, organism-based, Canis lupus familiaris; settings: in vivo
[20] = AUC in Beagle dog at 15 mg/kg, iv; settings: in vivo

Compound | MIC [1] [µg/mL] | MIC [2] [µg/mL] | MIC [3] [µg/mL] | MIC [4] [µg/mL] | ED50 [5] [mg/kg] | further results
CC(=O)NC[C@H]1CN(c2ccc(N3CCC4(CC3)OCCS4)c(F)c2)C(=O)O1 | 4 (≈ 9.77 µM) | 4 (≈ 9.77 µM) | 4 (≈ 9.77 µM) | > 16 | 10 | –
CC(=O)NC[C@H]1CN(c2ccc(N3CCC4(CC3)OCCCCO4)c(F)c2)C(=O)O1 | 16 (≈ 38 µM) | 16 (≈ 38 µM) | 4 (≈ 9.49 µM) | > 16 | – | –
CC(=O)NC[C@H]1CN(c2cc(F)c(N3CCC4(OCCO4)C(F)C3)c(F)c2)C(=O)O1 (some centres undefined) | 2 (≈ 4.66 µM) | 2 (≈ 4.66 µM) | > 4 | 16 (≈ 37.3 µM) | < 5 | MIC [6]: > 8 µg/mL; MIC [7]: > 8 µg/mL
CC(=O)NC[C@H]1CN(c2ccc(N3CCC4(CC3)OCC[S+]4[O-])c(F)c2)C(=O)O1 (some centres undefined) | 4 (≈ 9.4 µM) | 4 (≈ 9.4 µM) | 2 (≈ 4.7 µM) | 8 (≈ 18.8 µM) | 10 | –
CC(=O)NC[C@H]1CN(c2ccc(N3CCC4(OCCO4)C(F)C3)cc2)C(=O)O1 (some centres undefined) | 16 (≈ 40.7 µM) | 8 (≈ 20.3 µM) | 4 (≈ 10.2 µM) | > 16 | 5 | –
CC(=O)NC[C@H]1CN(c2ccc(N3CCC4(CC3)COCCCO4)c(F)c2)C(=O)O1 | 8 (≈ 19 µM) | 4 (≈ 9.49 µM) | 4 (≈ 9.49 µM) | > 16 | 10 | –
CC(=O)NC[C@H]1CN(c2cc(F)c(N3CCC4(OCCO4)[C@@H](F)C3)c(F)c2)C(=O)O1 | 2 (≈ 4.66 µM) | 2 (≈ 4.66 µM) | 1 (≈ 2.33 µM) | > 16 | 2.5 | MIC [6]: > 8 µg/mL; MIC [7]: > 8 µg/mL; Cmax [8]: 2370 ng/mL; Cmax [9]: 10800 ng/mL; Cmax [10]: 7100 ng/mL; AUC [11]: 7.32 µg·h/kg; AUC [12]: 6.9 µg·h/kg; half-life ([13]; Wistar, read-out: beta t1/2 (converted)): 7.1 h; beta t1/2 [14]: 4.01 h; Vd [15]: 0.4 L/kg; Vd ([16]; Wistar, read-out: Vd): 9.66 L/kg; CL [17]: 220.3 mL/min/kg; clearance ([18]; Wistar): 30.3 mL/min/kg; CL [19]: 1.7 mL/min/kg; AUC [20]: 135 µg·h/mL
CC(=O)NC[C@H]1CN(c2ccc(N3CCC4(CC3)OCC(C)O4)c(F)c2)C(=O)O1 (some centres undefined) | – | 8 (≈ 19.6 µM) | – | – | > 20 | –
CC(=O)NC[C@H]1CN(c2ccc(N3CCOCC3)c(F)c2)C(=O)O1 [LINEZOLID] | – | – | – | 4 (≈ 11.9 µM) | 2.5 | MIC [6]: > 8 µg/mL; MIC [7]: > 8 µg/mL; Cmax [8]: 8700 ng/mL; Cmax [9]: 27300 ng/mL; Cmax [10]: 1620 ng/mL; AUC [11]: 1.24 µg·h/kg; AUC [12]: 19.9 µg·h/kg; beta t1/2 ([13]; iv, 30 mg/kg): 2.23 h; beta t1/2 [14]: 1.3 h; Vd [15]: 0.4 L/kg; Vd ([16]; iv, 30 mg/kg): 17.82 L/kg; CL [17]: 34 mL/min/kg; CL ([18]; iv, 30 mg/kg): 9.33 mL/min/kg; CL [19]: 3.17 mL/min/kg; AUC [20]: 78.2 µg·h/mL
CC(=O)NC[C@H]1CN(c2ccc(N3CCC4(OCCO4)C(C)C3)c(F)c2)C(=O)O1 (some centres undefined) | 32 (≈ 78.5 µM) | 32 (≈ 78.5 µM) | 8 (≈ 19.6 µM) | > 16 | – | –
CS(=O)(=O)NC[C@H]1CN(c2ccc(N3CCC4(OCCO4)C(F)C3)c(F)c2)C(=O)O1 (some centres undefined) | > 32 | 32 (≈ 71.5 µM) | > 8 | > 16 | > 30 | –
O=C1O[C@@H](Cn2ccnn2)CN1c1ccc(N2CCC3(OCCO3)C(F)C2)c(F)c1 (some centres undefined) | 16 (≈ 38 µM) | 3.12 (≈ 7.4 µM) | 4 (≈ 9.49 µM) | > 16 | – | –
CC(=O)NC[C@H]1CN(c2ccc(N3CCC4(CC3)OCCO4)c(F)c2)C(=O)O1 | 4 (≈ 10.2 µM) | 4 (≈ 10.2 µM) | 4 (≈ 10.2 µM) | 16 (≈ 40.7 µM) | 5 | –
CC(=O)NC[C@H]1CN(c2ccc(N3CCC4(CC3)COCO4)c(F)c2)C(=O)O1 | 4 (≈ 10.2 µM) | 4 (≈ 10.2 µM) | 2 (≈ 5.08 µM) | > 16 | 5 | –
CC(=O)NC[C@H]1CN(c2ccc(N3CCC4(CC3)CO4)c(F)c2)C(=O)O1 | 4 (≈ 11 µM) | 4 (≈ 11 µM) | 4 (≈ 11 µM) | 16 (≈ 44 µM) | – | –
CS(=O)(=O)OC[C@H]1CN(c2ccc(N3CCC4(OCCO4)C(F)C3)c(F)c2)C(=O)O1 (some centres undefined) | 12.5 (≈ 27.9 µM) | 6.25 (≈ 13.9 µM) | 4 (≈ 8.92 µM) | – | > 10 | –
O=C1O[C@@H](Cn2ccnn2)CN1c1cc(F)c(N2CCC3(OCCO3)C(F)C2)c(F)c1 (some centres undefined) | 8 (≈ 18.2 µM) | 4 (≈ 9.1 µM) | 2 (≈ 4.55 µM) | > 16 | – | –
CC(=O)NC[C@H]1CN(c2ccc(N3CCC4(CC3)SCCS4)c(F)c2)C(=O)O1 | 8 (≈ 18.8 µM) | 4 (≈ 9.4 µM) | 2 (≈ 4.7 µM) | > 16 | > 20 | –
CC(=O)NC[C@H]1CN(c2ccc(N3CCCC4(C3)OCCO4)c(F)c2)C(=O)O1 | 4 (≈ 10.2 µM) | 4 (≈ 10.2 µM) | 4 (≈ 10.2 µM) | 16 (≈ 40.7 µM) | 5 | –
CC(=O)NC[C@H]1CN(c2ccc(N3CCC4(CC3)OCC(C)(C)CO4)c(F)c2)C(=O)O1 | 16 (≈ 36.7 µM) | 16 (≈ 36.7 µM) | 8 (≈ 18.4 µM) | > 16 | – | –
CC(=O)NC[C@H]1CN(c2ccc(N3CCC4(CC3)NCCO4)c(F)c2)C(=O)O1 | 2 (≈ 5.1 µM) | 2 (≈ 5.1 µM) | 2 (≈ 5.1 µM) | 8 (≈ 20.4 µM) | 20 | –
CC(=O)NC[C@H]1CN(c2ccc(N3CCC4(OCCO4)C(C)(C)C3)c(F)c2)C(=O)O1 | – | 12.5 (≈ 29.7 µM) | 4 (≈ 9.49 µM) | 2 (≈ 4.75 µM) | – | –
CC(=O)NC[C@H]1CN(c2cc(F)c(N3CCC4(OCCO4)[C@H](F)C3)c(F)c2)C(=O)O1 | 8 (≈ 18.6 µM) | 8 (≈ 18.6 µM) | 2 (≈ 4.66 µM) | 16 (≈ 37.3 µM) | 2.5 | MIC [6]: > 8 µg/mL; MIC [7]: > 8 µg/mL
CC(=O)NC[C@H]1CN(c2ccc(N3CCC4(CC3)NCCS4)c(F)c2)C(=O)O1 | 4 (≈ 9.79 µM) | 4 (≈ 9.79 µM) | 2 (≈ 4.9 µM) | 8 (≈ 19.6 µM) | 5 | –
CC(=O)NC[C@H]1CN(c2ccc(N3CCC4(CC3)OCC(C)(C)O4)c(F)c2)C(=O)O1 | – | 8 (≈ 19 µM) | – | – | > 20 | –
CC(=O)NC[C@H]1CN(c2ccc(N3CCC4(OCCO4)C(F)C3)c(F)c2)C(=O)O1 (some centres undefined) | 12.5 (≈ 30.4 µM) | 4 (≈ 9.72 µM) | 2 (≈ 4.86 µM) | – | 5 | –
CC(=O)NC[C@H]1CN(c2ccc(N3CCC4(CC3)OCCS4(=O)=O)c(F)c2)C(=O)O1 | > 32 | > 32 | 2 (≈ 4.53 µM) | 16 (≈ 36.2 µM) | – | –
CC(=O)NC[C@H]1CN(c2ccc(N3CCC4(CCO4)CC3)c(F)c2)C(=O)O1 | 16 (≈ 42.4 µM) | 6.25 (≈ 16.6 µM) | 4 (≈ 10.6 µM) | > 16 | 20 | –
CC(=O)NC[C@H]1CN(c2ccc(N3CCC4(CC3)COCCO4)c(F)c2)C(=O)O1 | 4 (≈ 9.82 µM) | 4 (≈ 9.82 µM) | 2 (≈ 4.91 µM) | > 16 | > 10 | –
